This passage reports IC50 results from ChEMBL document CHEMBL1147945, “R-isomers of Arg-Gly-Asp (RGD) mimics as potent alphavbeta3 inhibitors” (Bioorg Med Chem, 2007).

pIC50: −log10 of the molar value.

The target of one experiment is Integrin alpha-V/beta-6 (Homo sapiens, UniProt P06756+P18564). The experiment is described as follows: Inhibition of alpha-V-beta-6 integrin receptor in human HT29 cells. The format is cell-based, HT-29.
In a further experiment the target is Integrin alpha-V/beta-3 (Homo sapiens, UniProt P05106+P06756). Description: Inhibition of alphaVbeta3 integrin receptor expressed in human 293 cells. The format is cell-based, HEK293.
Integrin alpha-V/beta-3, sequence (P05106 27-788 limits assumed): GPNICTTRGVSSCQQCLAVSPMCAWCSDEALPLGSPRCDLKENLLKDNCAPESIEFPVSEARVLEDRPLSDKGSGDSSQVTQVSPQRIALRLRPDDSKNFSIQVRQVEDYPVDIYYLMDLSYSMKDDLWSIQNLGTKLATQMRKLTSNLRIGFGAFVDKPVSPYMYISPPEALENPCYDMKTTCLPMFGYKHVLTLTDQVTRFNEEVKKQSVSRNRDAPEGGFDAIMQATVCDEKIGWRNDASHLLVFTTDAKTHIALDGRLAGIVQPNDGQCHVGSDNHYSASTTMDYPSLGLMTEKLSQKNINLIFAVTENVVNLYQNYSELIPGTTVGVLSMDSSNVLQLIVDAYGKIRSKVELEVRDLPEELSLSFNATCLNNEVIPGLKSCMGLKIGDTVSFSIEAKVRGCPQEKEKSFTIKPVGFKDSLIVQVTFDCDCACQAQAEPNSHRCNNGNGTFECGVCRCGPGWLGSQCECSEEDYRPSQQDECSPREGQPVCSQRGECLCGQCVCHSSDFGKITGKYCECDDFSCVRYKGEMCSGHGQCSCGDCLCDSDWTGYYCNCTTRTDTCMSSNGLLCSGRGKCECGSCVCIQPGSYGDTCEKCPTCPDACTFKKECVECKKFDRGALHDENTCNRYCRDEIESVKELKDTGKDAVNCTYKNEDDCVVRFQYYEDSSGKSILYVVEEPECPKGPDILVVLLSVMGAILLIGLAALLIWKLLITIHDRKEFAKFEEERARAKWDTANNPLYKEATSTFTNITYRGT
Integrin alpha-V/beta-3, sequence (P06756 31-889 limits assumed): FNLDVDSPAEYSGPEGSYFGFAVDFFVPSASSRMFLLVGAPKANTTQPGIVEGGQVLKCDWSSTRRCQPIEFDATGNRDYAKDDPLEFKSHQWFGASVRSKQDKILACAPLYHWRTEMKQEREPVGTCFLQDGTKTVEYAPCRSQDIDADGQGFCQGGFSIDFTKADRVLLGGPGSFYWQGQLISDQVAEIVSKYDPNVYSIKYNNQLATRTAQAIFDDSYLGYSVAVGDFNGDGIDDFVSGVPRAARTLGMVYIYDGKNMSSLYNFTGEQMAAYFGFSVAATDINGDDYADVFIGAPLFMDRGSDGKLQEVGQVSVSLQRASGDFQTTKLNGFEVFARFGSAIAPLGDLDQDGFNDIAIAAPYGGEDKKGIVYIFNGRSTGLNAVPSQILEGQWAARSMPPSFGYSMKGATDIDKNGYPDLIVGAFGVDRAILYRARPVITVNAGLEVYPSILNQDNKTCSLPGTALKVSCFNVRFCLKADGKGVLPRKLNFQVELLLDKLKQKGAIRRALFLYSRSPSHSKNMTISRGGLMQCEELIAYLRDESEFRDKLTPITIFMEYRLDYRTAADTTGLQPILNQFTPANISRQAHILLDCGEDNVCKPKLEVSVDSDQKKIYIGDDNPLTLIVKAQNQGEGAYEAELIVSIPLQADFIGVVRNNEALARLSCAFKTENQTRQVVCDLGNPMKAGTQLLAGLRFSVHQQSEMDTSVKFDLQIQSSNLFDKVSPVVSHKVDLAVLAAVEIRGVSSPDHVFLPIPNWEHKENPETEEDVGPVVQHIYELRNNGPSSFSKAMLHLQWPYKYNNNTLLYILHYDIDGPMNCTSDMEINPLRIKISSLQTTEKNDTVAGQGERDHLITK
Integrin alpha-V/beta-3, sequence (P06756 891-1048 limits assumed): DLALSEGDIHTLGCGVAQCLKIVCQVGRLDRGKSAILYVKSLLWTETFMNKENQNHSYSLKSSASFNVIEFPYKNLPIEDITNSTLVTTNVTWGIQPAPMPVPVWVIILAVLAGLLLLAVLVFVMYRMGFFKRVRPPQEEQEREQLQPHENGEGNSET

Integrin alpha-V/beta-6, sequence (P06756 31-889 limits assumed): as the sequence (P06756 31-889 limits assumed) above
Integrin alpha-V/beta-6, sequence (P06756 891-1048 limits assumed): as the sequence (P06756 891-1048 limits assumed) above
Integrin alpha-V/beta-6, sequence (P18564 22-788 limits assumed): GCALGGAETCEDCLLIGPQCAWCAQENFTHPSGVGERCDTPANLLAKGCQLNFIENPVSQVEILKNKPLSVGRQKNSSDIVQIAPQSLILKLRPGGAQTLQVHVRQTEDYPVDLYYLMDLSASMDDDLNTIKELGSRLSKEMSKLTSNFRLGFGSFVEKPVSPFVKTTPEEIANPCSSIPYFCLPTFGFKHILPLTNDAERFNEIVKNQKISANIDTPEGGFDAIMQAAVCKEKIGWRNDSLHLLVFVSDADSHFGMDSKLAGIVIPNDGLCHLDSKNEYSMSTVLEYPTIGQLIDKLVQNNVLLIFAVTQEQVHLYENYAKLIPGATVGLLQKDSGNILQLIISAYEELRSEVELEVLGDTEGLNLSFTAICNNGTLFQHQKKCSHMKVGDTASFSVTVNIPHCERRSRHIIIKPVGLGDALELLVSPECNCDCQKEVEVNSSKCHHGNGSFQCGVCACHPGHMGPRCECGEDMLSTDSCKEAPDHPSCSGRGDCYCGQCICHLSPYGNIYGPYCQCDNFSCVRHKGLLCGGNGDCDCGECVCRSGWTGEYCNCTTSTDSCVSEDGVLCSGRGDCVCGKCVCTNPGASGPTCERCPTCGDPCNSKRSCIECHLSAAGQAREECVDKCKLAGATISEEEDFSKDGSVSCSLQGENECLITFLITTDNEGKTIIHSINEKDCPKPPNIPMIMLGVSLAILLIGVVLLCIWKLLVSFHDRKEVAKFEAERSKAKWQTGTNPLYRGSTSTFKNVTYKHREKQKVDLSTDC

For `Nc1cc(NC2=NCC(O)CN2)cc(C(=O)NCC(=O)N[C@H](CC(=O)O)c2cc(Cl)cc(I)c2O)c1` (stereo partly drawn), the pIC50 was 4.91 against Integrin alpha-V/beta-6 and 9.52 against Integrin alpha-V/beta-3.

Take `O=C(O)C[C@@H](NC(=O)CNC(=O)c1cc(O)cc(N=C2NCCCN2)c1)c1cc(Br)cc(Br)c1O`: the negative-log IC50 (pIC50) at Integrin alpha-V/beta-6 was 6.69; against Integrin alpha-V/beta-3 it was 7.70.

On to `O=C(O)C[C@@H](NC(=O)CNC(=O)c1cccc(NC2=NCC(O)CN2)c1)c1cc(Br)cc(Br)c1O` (stereo partly drawn), for which the negative logarithm of the IC50 (pIC50) was 7.60 against Integrin alpha-V/beta-6 and 8.00 at Integrin alpha-V/beta-3.

With `O=C(O)C[C@@H](NC(=O)CNC(=O)c1cc(O)cc(NC2=NCC(F)CN2)c1)c1cc(Cl)cc(Cl)c1O` (stereo partly drawn), the negative-log IC50 (pIC50) was 7.38 on Integrin alpha-V/beta-6 and 9.00 at Integrin alpha-V/beta-3.

Take `O=C(O)C[C@@H](NC(=O)CNC(=O)c1cc(O)cc(NC2=NCCCN2)c1)c1cc(Br)cc(Cl)c1O`: the pIC50 on Integrin alpha-V/beta-6 is 6.82; against Integrin alpha-V/beta-3 it was 8.00.

On to `O=C(O)C[C@@H](NC(=O)CNC(=O)c1cc(O)cc(NC2=NCC(F)CN2)c1)c1cc(Br)cc(I)c1` (stereo partly drawn), for which the pIC50 on Integrin alpha-V/beta-6 is 7.96; against Integrin alpha-V/beta-3, 7.89.

For `O=C(O)C[C@H](NC(=O)CNC(=O)c1cc(O)cc(NC2=NCC(O)CN2)c1)c1cc(Cl)cc(Br)c1O` (stereo partly drawn), the negative logarithm of the IC50 (pIC50) against Integrin alpha-V/beta-3 was 8.59.

As to `O=C(O)C[C@@H](NC(=O)CNC(=O)c1cccc(NC2=NCC(O)CN2)c1)c1cc(Cl)cc(I)c1O` (stereo partly drawn), the negative logarithm of the IC50 (pIC50) is 4.94 against Integrin alpha-V/beta-6 and 9.00 against Integrin alpha-V/beta-3.

In the case of `O=C(O)C[C@@H](NC(=O)CNC(=O)c1cc(O)cc(NC2=NCC(O)CN2)c1)c1cc(Cl)cc(I)c1O` (stereo partly drawn), the results for the negative-log IC50 (pIC50) on Integrin alpha-V/beta-6 and at Integrin alpha-V/beta-3 were 6.20 and 8.52, respectively.

As for `O=C(O)C[C@@H](NC(=O)CNC(=O)c1cccc(NC2=NCCCN2)c1)c1cc(Br)cc(Cl)c1O`, the pIC50 against Integrin alpha-V/beta-6 was 7.06; on Integrin alpha-V/beta-3, 8.10.

As to `O=C(O)C[C@@H](NC(=O)CNC(=O)c1cncc(NC2=NCC(F)CN2)c1)c1cc(Cl)cc(Br)c1O` (stereo partly drawn), the negative logarithm of the IC50 (pIC50) at Integrin alpha-V/beta-6 was 5.74; against Integrin alpha-V/beta-3 it was 9.15.

`O=C(O)C[C@@H](NC(=O)CNC(=O)c1cc(O)cc(NC2=NCC(F)CN2)c1)c1cc(Cl)cc(Cl)c1` (stereo partly drawn): the results for the pIC50 on Integrin alpha-V/beta-6 and at Integrin alpha-V/beta-3 were 7.40 and 7.96, respectively.

In the case of `Cc1cc(C)cc([C@@H](CC(=O)O)NC(=O)CNC(=O)c2cc(O)cc(NC3=NCC(F)CN3)c2)c1` (stereo partly drawn), the values for the pIC50 at Integrin alpha-V/beta-6 and on Integrin alpha-V/beta-3 were 7.31 and 7.25, respectively.

With `O=C(O)C[C@@H](NC(=O)CNC(=O)c1cccc(NC2=NCC(O)CN2)c1)c1cc(Cl)cc(Br)c1O` (stereo partly drawn), the values for the negative-log IC50 (pIC50) against Integrin alpha-V/beta-6 and against Integrin alpha-V/beta-3 were 5.45 and 8.30, respectively.

In turn, `O=C(O)C[C@H](NC(=O)CNC(=O)c1cc(O)cc(N=C2NCC(O)CN2)c1)c1cc(Cl)cc(Cl)c1O` (stereo partly drawn) showed a negative logarithm of the IC50 (pIC50) on Integrin alpha-V/beta-3 of 9.05.

For the compound `Cc1cc(C)c(O)c([C@@H](CC(=O)O)NC(=O)CNC(=O)c2cc(N)cc(NC3=NCC(F)CN3)c2)c1` (stereo partly drawn), the negative-log IC50 (pIC50) was 7.19 on Integrin alpha-V/beta-6 and 8.00 against Integrin alpha-V/beta-3.

On to `O=C(O)C[C@@H](NC(=O)CNC(=O)c1cncc(NC2=NCC(O)CN2)c1)c1cc(Br)cc(Cl)c1O` (stereo partly drawn), for which the pIC50 against Integrin alpha-V/beta-6 is 4.64; against Integrin alpha-V/beta-3 it was 9.00.

For the compound `O=C(O)C[C@@H](NC(=O)CNC(=O)c1cccc(N=C2NCC(F)CN2)c1)c1cc(Cl)cc(Cl)c1O` (stereo partly drawn), the negative logarithm of the IC50 (pIC50) is 7.80 against Integrin alpha-V/beta-6 and 9.00 against Integrin alpha-V/beta-3.

With `O=C(O)C[C@H](NC(=O)CNC(=O)c1cc(O)cc(NC2=NCC(O)CN2)c1)c1cc(Cl)cc(I)c1O` (stereo partly drawn), the pIC50 against Integrin alpha-V/beta-3 is 8.19.

`Nc1cc(NC2=NCC(O)CN2)cc(C(=O)NCC(=O)N[C@H](CC(=O)O)c2cc(Cl)cc(Br)c2O)c1` (stereo partly drawn): the negative logarithm of the IC50 (pIC50) against Integrin alpha-V/beta-6 was 5.06; at Integrin alpha-V/beta-3 it was 7.66.

`Cc1cc(Cl)cc([C@@H](CC(=O)O)NC(=O)CNC(=O)c2cc(O)cc(NC3=NCC(O)CN3)c2)c1O` (stereo partly drawn): the pIC50 against Integrin alpha-V/beta-6 was 6.16; against Integrin alpha-V/beta-3 it was 7.74.

Take `O=C(O)C[C@@H](NC(=O)CNC(=O)c1cc(O)cc(NC2=NCC(O)CN2)c1)c1cc(Br)cc(Br)c1O` (stereo partly drawn): the negative logarithm of the IC50 (pIC50) is 7.02 against Integrin alpha-V/beta-6 and 7.68 on Integrin alpha-V/beta-3.

`O=C(O)C[C@@H](NC(=O)CNC(=O)c1cc(O)cc(NC2=NCCCN2)c1)c1cc(Cl)cc(Cl)c1O`: the pIC50 was 5.52 at Integrin alpha-V/beta-6 and 8.52 against Integrin alpha-V/beta-3.

Compound `O=C(O)C[C@H](NC(=O)CNC(=O)c1cc(O)cc(NC2=NCCCN2)c1)c1cc(Cl)cc(Cl)c1O` had a pIC50 against Integrin alpha-V/beta-3 of 9.05.

The compound `O=C(O)C[C@H](NC(=O)CNC(=O)c1cncc(N=C2NCC(O)CN2)c1)c1cc(Cl)cc(Br)c1O` (stereo partly drawn) showed a pIC50 against Integrin alpha-V/beta-3 of 9.40.

At Integrin alpha-V/beta-3, `Cc1cc(Cl)cc([C@H](CC(=O)O)NC(=O)CNC(=O)c2cc(O)cc(NC3=NCC(O)CN3)c2)c1O` (stereo partly drawn) gave a pIC50 of 9.70.

Regarding `O=C(O)C[C@@H](NC(=O)CNC(=O)c1cc(O)cc(NC2=NCC(F)(F)CN2)c1)c1cc(Cl)cc(Br)c1O`, the figures for the pIC50 on Integrin alpha-V/beta-6 and against Integrin alpha-V/beta-3 were 5.14 and 8.30, respectively.

Turning to `O=C(O)C[C@@H](NC(=O)CNC(=O)c1cccc(NC2=NCC(O)CN2)c1)c1cc(Br)cc(Cl)c1O` (stereo partly drawn), the values for the pIC50 at Integrin alpha-V/beta-6 and against Integrin alpha-V/beta-3 were 7.32 and 8.10, respectively.

In the case of `Nc1cc(NC2=NCC(F)CN2)cc(C(=O)NCC(=O)N[C@H](CC(=O)O)c2cc(Cl)cc(Br)c2O)c1` (stereo partly drawn), the figures for the negative-log IC50 (pIC50) against Integrin alpha-V/beta-6 and against Integrin alpha-V/beta-3 were 5.46 and 8.52, respectively.

Take `O=C(O)C[C@H](NC(=O)CNC(=O)c1cncc(NC2=NCC(O)CN2)c1)c1cc(Br)cc(Cl)c1O` (stereo partly drawn): the pIC50 against Integrin alpha-V/beta-3 is 9.52.

`O=C(O)C[C@@H](NC(=O)CNC(=O)c1cc(O)cc(NC2=NCC(F)CN2)c1)c1cc(Br)cc(Cl)c1O` (stereo partly drawn): the pIC50 was 7.15 against Integrin alpha-V/beta-6 and 8.52 at Integrin alpha-V/beta-3.

As to `Nc1cc(NC2=NCC(O)CN2)cc(C(=O)NCC(=O)N[C@H](CC(=O)O)c2cc(Br)cc(Br)c2O)c1` (stereo partly drawn), the pIC50 at Integrin alpha-V/beta-6 is 5.55; on Integrin alpha-V/beta-3, 8.15.

On to `O=C(O)C[C@@H](NC(=O)CNC(=O)c1cc(O)cc(NC2=NCCCN2)c1)c1cc(Cl)cc(Br)c1O`, for which the results for the pIC50 against Integrin alpha-V/beta-6 and against Integrin alpha-V/beta-3 were 5.56 and 8.00, respectively.

`O=C(O)C[C@H](NC(=O)CNC(=O)c1cccc(NC2=NCC(F)CN2)c1)c1cc(Cl)cc(Br)c1O` (stereo partly drawn) had a pIC50 against Integrin alpha-V/beta-3 of 9.70.

For the compound `O=C(O)C[C@@H](NC(=O)CNC(=O)c1cc(O)cc(NC2=NCC(F)CN2)c1)c1cc(Cl)cc(Br)c1` (stereo partly drawn), the pIC50 is 7.24 at Integrin alpha-V/beta-6 and 8.30 at Integrin alpha-V/beta-3.

For `O=C(O)C[C@@H](NC(=O)CNC(=O)c1cc(O)cc(NC2=NCC(F)CN2)c1)c1cc(Br)cc(Br)c1O` (stereo partly drawn), the negative logarithm of the IC50 (pIC50) against Integrin alpha-V/beta-6 was 5.47; against Integrin alpha-V/beta-3, 8.52.

In turn, `O=C(O)C[C@H](NC(=O)CNC(=O)c1cc(O)cc(NC2=NCCCN2)c1)c1cc(Cl)cc(Br)c1O` had a pIC50 on Integrin alpha-V/beta-3 of 8.70.

As to `O=C(O)C[C@H](NC(=O)CNC(=O)c1cccc(N=C2NCC(O)CN2)c1)c1cc(Cl)cc(I)c1O` (stereo partly drawn), at Integrin alpha-V/beta-3, the pIC50 was 8.80.

As to `O=C(O)C[C@H](NC(=O)CNC(=O)c1cncc(NC2=NCC(F)CN2)c1)c1cc(Cl)cc(Br)c1O` (stereo partly drawn), the pIC50 at Integrin alpha-V/beta-3 was 9.40.

`O=C(O)C[C@H](NC(=O)CNC(=O)c1cccc(NC2=NCC(O)CN2)c1)c1cc(Cl)cc(Br)c1O` (stereo partly drawn) had a negative-log IC50 (pIC50) on Integrin alpha-V/beta-3 of 9.22.

With `O=C(O)C[C@H](NC(=O)CNC(=O)c1cccc(NC2=NCCCN2)c1)c1cc(Cl)cc(Br)c1O`, the negative-log IC50 (pIC50) at Integrin alpha-V/beta-3 was 8.70.

On Integrin alpha-V/beta-3, `O=C(O)C[C@H](NC(=O)CNC(=O)c1cccc(NC2=NCC(O)CN2)c1)c1cc(Cl)cc(Cl)c1O` (stereo partly drawn) gave a negative-log IC50 (pIC50) of 9.52.

Regarding `O=C(O)C[C@H](NC(=O)CNC(=O)c1cc(O)cc(N=C2NCC(F)(F)CN2)c1)c1cc(Cl)cc(Br)c1O`, on Integrin alpha-V/beta-3, the negative-log IC50 (pIC50) is 8.30.

At Integrin alpha-V/beta-3, `Cc1cc(C)c(O)c([C@H](CC(=O)O)NC(=O)CNC(=O)c2cc(O)cc(NC3=NCC(O)CN3)c2)c1` (stereo partly drawn) showed a pIC50 of 9.00.

Compound `O=C(O)C[C@H](NC(=O)CNC(=O)c1cc(O)cc(N=C2NCC(O)CN2)c1)c1cc(Br)cc(Cl)c1O` (stereo partly drawn) had a pIC50 on Integrin alpha-V/beta-3 of 8.57.
